Measurements reported in patent publication US6310091A, “Fungicidal saponin, CAY-1, and isolation thereof from Capsium species fruit” (The United States of America as represented by the …, priority 2000, dated 2001).
“And” between values parts separate entries of the source, which are not always exact repeats. Equal entries are not always repeated. Where two headings read alike, the source gives them in different places.

Test system: Aspergillus flavus
Assay: Time course study against germinating conidia of A. flavus
Type: cell-based
Details: for activity at 2 µM / activity at 3 µM / activity at 4 µM / activity at 5 µM / activity at 7.5 µM / activity at 10 µM: read-out: Percent of Mean Control
Method: 1. Filamentous fungi. Filamentous fungi used in bioassays included Aspergillus flavus, A. fumigatus, A. niger, A. parasiticus and Fusarium oxysporum. The fungicidal properties of CAY-1 for the nongerminated and germinating conidia of these fungi were determined separately as described by De Lucca et al. [Med. Mycol., 36:291-298 (1998)] and De Lucca et al. [Antimicrob. Agents Chemother. 43:371-373 (1999)]. […] Two separate experiments were conducted in each medium (n=8 per medium).
A suspension of the aforementioned fungi were prepared separately in the appropriate medium. Conidia (10^4 conidia/ml) were used immediately for the nongerminated conidial assays while conidia (10^5 conidia/ml) were incubated for 7.5 hours at 30° C. to obtain germinating conidia. Serial dilutions of CAY-1 were prepared in the appropriate medium (totaling 225 μl) to which was added 25 μl of the conidial suspensions. The control consisted of 225 μl of medium and 25 μl of the conidial suspension. After mixing, the samples were incubated for 30 min (30° C.). Samples were then spread on potato dextrose agar plates which were incubated at 30° C. for 24 hours. Colonies were then enumerated.
4. Time course study. The effect of time and concentration on the activity of CAY-1 was determined against the germinating conidia of A. flavus in 1% (w/v) PBD. Bioassays were performed twice as described above (n=8).
Statistical analyses. ANOVA analyses on ranks for nonparametric data were performed for the bioassays described in this example.

In the case of `CC1CCC2(OC1)OC1CC3C4CCC5CC(OC6OC(CO)C(OC7OC(CO)C(O)C(OC8OC(CO)C(O)C(OC9OC(CO)C(O)C(O)C9O)C8O)C7OC7OC(CO)C(O)C(O)C7O)C(O)C6O)C(O)CC5(C)C4CCC3(C)C1C2C` (stereo not drawn) [CAY-1], the “Mean No. of Colonies” value (5.0 min, 1% PDB, 5.0 μM) is reported as 172.4, the “Mean No. of Colonies” value (5.0 min, 1% PDB, 7.5 μM) is reported as 163.3 and the “Mean No. of Colonies” value (5.0 min, 1% PDB, 10.0 μM) is reported as 89.8. The “Mean No. of Colonies” value (10.0 min, 1% PDB, 2.0 μM) was 135.5, the “Mean No. of Colonies” value (10.0 min, 1% PDB, 3.0 μM) was 110.8 and the “Mean No. of Colonies” value (10.0 min, 1% PDB, 4.0 μM) was 119.3. The “Mean No. of Colonies” value (10.0 min, 1% PDB, 5.0 μM) was 84.3, the “Mean No. of Colonies” value (10.0 min, 1% PDB, 7.5 μM) was 32.8 and the “Mean No. of Colonies” value (10.0 min, 1% PDB, 10.0 μM) was 24.9. For the same compound, the “Mean No. of Colonies” value (15 min, 1% PDB, 2.0 μM) was 126.0, the “Mean No. of Colonies” value (15 min, 1% PDB, 3.0 μM) was 131.9 and the “Mean No. of Colonies” value (15 min, 1% PDB, 4.0 μM) was 109.1. The “Mean No. of Colonies” value (15 min, 1% PDB, 5.0 μM) was 77.6, the “Mean No. of Colonies” value (15 min, 1% PDB, 7.5 μM) was 28.1 and the “Mean No. of Colonies” value (15 min, 1% PDB, 10.0 μM) was 4.4. For the same compound, the “Mean No. of Colonies” value (20 min, 1% PDB, 2.0 μM) was 227.4, the “Mean No. of Colonies” value (20 min, 1% PDB, 3.0 μM) was 200.0 and the “Mean No. of Colonies” value (20 min, 1% PDB, 4.0 μM) was 156.4. For the same compound, the “Mean No. of Colonies” value (20 min, 1% PDB, 5.0 μM) was 95.5, the “Mean No. of Colonies” value (20 min, 1% PDB, 7.5 μM) was 19.8 and the “Mean No. of Colonies” value (20 min, 1% PDB, 10.0 μM) was 7.6. The “Mean No. of Colonies” value (30 min, 1% PDB, 2.0 μM) was 139.8, the “Mean No. of Colonies” value (30 min, 1% PDB, 3.0 μM) was 115.4 and the “Mean No. of Colonies” value (30 min, 1% PDB, 4.0 μM) was 84.1. The “Mean No. of Colonies” value (30 min, 1% PDB, 5.0 μM) was 54.2, the “Mean No. of Colonies” value (30 min, 1% PDB, 7.5 μM) was 17.1 and the “Mean No. of Colonies” value (30 min, 1% PDB, 10.0 μM) was 13.1. For the same compound, the activity at 2 µM (Aspergillus flavus, 2.5 min, 1% PDB, 2.0 μM) was 110%, the activity at 3 µM (Aspergillus flavus, 2.5 min, 1% PDB, 3.0 μM) was 104% and the activity at 4 µM (Aspergillus flavus, 2.5 min, 1% PDB, 4.0 μM) was 102%. It also gave an activity at 5 µM (Aspergillus flavus, 2.5 min, 1% PDB, 5.0 μM) of 101%, an activity at 7.5 µM (Aspergillus flavus, 2.5 min, 1% PDB, 7.5 μM) of 95.8% and an activity at 10 µM (Aspergillus flavus, 2.5 min, 1% PDB, 10.0 μM) of 92.3%. For the same compound, the minimal effective concentration (Aspergillus flavus, 5 min, read-out: lowest concentration with significant lethality) was 7.5 µM and 9.3 µg/mL, the activity at 2 µM (Aspergillus flavus, 5 min, 1% PDB, 2.0 μM) was 89.2% and the activity at 3 µM (Aspergillus flavus, 5 min, 1% PDB, 3.0 μM) was 93%. It also gave an activity at 4 µM (Aspergillus flavus, 5 min, 1% PDB, 4.0 μM) of 83.8%, an activity at 5 µM (Aspergillus flavus, 5 min, 1% PDB, 5.0 μM) of 84.3% and an activity at 7.5 µM (Aspergillus flavus, 5 min, 1% PDB, 7.5 μM) of 79.9%. For the same compound, the activity at 10 µM (Aspergillus flavus, 5 min, 1% PDB, 10.0 μM) was 43.8%, the activity at 2 µM (Aspergillus flavus, 10 min, 1% PDB, 2.0 μM) was 102% and the activity at 3 µM (Aspergillus flavus, 10 min, 1% PDB, 3.0 μM) was 83.3%. For the same compound, the activity at 4 µM (Aspergillus flavus, 10 min, 1% PDB, 4.0 μM) was 89.7%, the activity at 5 µM (Aspergillus flavus, 10 min, 1% PDB, 5.0 μM) was 63.4% and the activity at 7.5 µM (Aspergillus flavus, 10 min, 1% PDB, 7.5 μM) was 24.7%. For the same compound, the activity at 10 µM (Aspergillus flavus, 10 min, 1% PDB, 10.0 μM) was 18.7%, the minimal effective concentration (Aspergillus flavus, 10 min, 10 minutes post-incubation, 1% PDB, p=0.0001, read-out: concentration required for significant activity) was 5 µM and 6.2 µg/mL and the IC95 (Aspergillus flavus, 0.25 h, read-out: LD95) was 10 µM and 12.4 µg/mL. It also gave an activity at 2 µM (Aspergillus flavus, 0.25 h, 15 min, 1% PDB, 2.0 μM) of 98.4%, an activity at 3 µM (Aspergillus flavus, 0.25 h, 15 min, 1% PDB, 3.0 μM) of 103% and an activity at 4 µM (Aspergillus flavus, 0.25 h, 15 min, 1% PDB, 4.0 μM) of 85.2%. The activity at 5 µM (Aspergillus flavus, 0.25 h, 15 min, 1% PDB, 5.0 μM) was 60.6%, the activity at 7.5 µM (Aspergillus flavus, 0.25 h, 15 min, 1% PDB, 7.5 μM) was 22% and the activity at 10 µM (Aspergillus flavus, 0.25 h, 15 min, 1% PDB, 10.0 μM) was 3.4%. The activity at 2 µM (Aspergillus flavus, 20 min, 1% PDB, 2.0 μM) was 98.9%, the activity at 3 µM (Aspergillus flavus, 20 min, 1% PDB, 3.0 μM) was 87% and the activity at 4 µM (Aspergillus flavus, 20 min, 1% PDB, 4.0 μM) was 68%. For the same compound, the activity at 5 µM (Aspergillus flavus, 20 min, 1% PDB, 5.0 μM) was 41.5%, the activity at 7.5 µM (Aspergillus flavus, 20 min, 1% PDB, 7.5 μM) was 8.6% and the activity at 10 µM (Aspergillus flavus, 20 min, 1% PDB, 10.0 μM) was 3.3%. For the same compound, the activity at 2 µM (Aspergillus flavus, 0.5 h, 30 min, 1% PDB, 2.0 μM) was 90.1%, the activity at 3 µM (Aspergillus flavus, 0.5 h, 30 min, 1% PDB, 3.0 μM) was 74.4% and the activity at 4 µM (Aspergillus flavus, 0.5 h, 30 min, 1% PDB, 4.0 μM) was 54.2%. The activity at 5 µM (Aspergillus flavus, 0.5 h, 30 min, 1% PDB, 5.0 μM) was 34.9%, the activity at 7.5 µM (Aspergillus flavus, 0.5 h, 30 min, 1% PDB, 7.5 μM) was 11% and the activity at 10 µM (Aspergillus flavus, 0.5 h, 30 min, 1% PDB, 10.0 μM) was 8.4%.
